Source: the NIST ThermoML archive (doi:10.1021/je100734t)

Experiment: xn = mol fraction of the nth substance listed
Details: 101 kPa, Liquid; for speed of sound: Pulse-echo method

CCCCCCCCCO [nonan-1-ol] + Cc1cccc(C)c1
Details	mass density, 293.15 K [kg/m3]	mass density, 303.15 K [kg/m3]	mass density, 313.15 K [kg/m3]	speed of sound, 293.15 K [m/s]	speed of sound, 303.15 K [m/s]	speed of sound, 313.15 K [m/s]
x2 = 0	827.7	820.82	813.88	1381	1347	1314
x2 = 0.066	829.52	822.53	815.47	1378	1343	1310
x2 = 0.127	831.23	824.14	816.98	1375	1340	1306
x2 = 0.1739	832.57	825.39	818.16	1373	1337	1302
x2 = 0.2461	834.67	827.36	820.01	1368	1332	1297
x2 = 0.2913	836.03	828.63	821.21	1365	1328	1293
x2 = 0.3635	838.25	830.72	823.17	1361	1323	1287
x2 = 0.4422	840.77	833.1	825.42	1355	1317	1281
x2 = 0.4872	842.27	834.52	826.76	1353	1314	1277
x2 = 0.5648	844.95	837.08	829.18	1348	1309	1272
x2 = 0.6251	847.15	839.19	831.18	1345	1305	1268
x2 = 0.6873	849.54	841.47	833.35	1342	1302	1264
x2 = 0.7713	853	844.78	836.5	1339	1299	1260
x2 = 0.8507	856.56	848.19	839.76	1338	1298	1258
x2 = 0.9284	860.34	851.84	843.28	1339	1298	1257

CCCCCCCCCO [nonan-1-ol] + Cc1ccccc1C
Details	mass density, 293.15 K [kg/m3]	mass density, 303.15 K [kg/m3]	mass density, 313.15 K [kg/m3]	speed of sound, 293.15 K [m/s]	speed of sound, 303.15 K [m/s]	speed of sound, 313.15 K [m/s]
x2 = 0	827.7	820.82	813.88	1381	1347	1314
x2 = 0.0653	830.13	823.15	816.1	1380	1345	1312
x2 = 0.136	832.82	825.73	818.58	1378	1343	1309
x2 = 0.1773	834.44	827.29	820.07	1377	1341	1307
x2 = 0.2281	836.48	829.25	821.95	1375	1339	1304
x2 = 0.2834	838.77	831.45	824.06	1373	1336	1301
x2 = 0.3463	841.46	834.04	826.55	1370	1334	1298
x2 = 0.4203	844.78	837.24	829.63	1368	1330	1295
x2 = 0.4761	847.41	839.78	832.07	1366	1328	1292
x2 = 0.5478	850.96	843.21	835.38	1364	1326	1289
x2 = 0.6327	855.43	847.54	839.57	1362	1323	1286
x2 = 0.7121	859.93	851.92	843.83	1361	1322	1285
x2 = 0.7974	865.14	856.99	848.77	1361	1322	1284
x2 = 0.8695	869.88	861.63	853.31	1363	1322	1284
x2 = 0.9287	874.08	865.73	857.34	1365	1324	1285
